The values below come from patent US20140093550A1 (priority 2012, published 2014).

The structures appear in SMILES notation.

The test system of assay [1] is Legionella pneumophila biofilm. Format: cell-based, Legionella pneumophila strain Philadelphia 1 (ATCC 33152). Particulars: 7 days; nanoparticles 1 microgram/milliliter, chlorine dioxide 0.1 ppm.
Assay [2] concerns Legionella pneumophila biofilm. Format: cell-based, Legionella pneumophila strain Philadelphia 1 (ATCC 33152). Particulars: 5 days post-treatment after 7 days of treatment (Example 7 biofilms).

For `[O][Cl+][O-]` [chlorine dioxide biocide, chlorine dioxide], the “biomass of biofilm after treatment (Example 7, FIG. 14)” value in assay [1] is given as “about 0.5 micrometers^3/micrometers^2”. In addition, the “fold increase in biomass on day 12” value in assay [2] is about 1.25 fold.
